Measurements reported in the supplement of paper PMC10627819.

Tests used:
[1] = tested on: B. subtilis 168; assay: Bliss interaction score (quartile over a dose matrix) (fitness difference); higher = more antagonism (negative = synergy)
Outline: (§1)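 Quartiles summarise the Bliss score over technical, biological and donor/recipient replicates, where the score is observed minus expected fitness under a product model. Expected fitness uses single-drug values inferred from combination data. Fitness is OD595 at entry into stationary phase over the plate's robust no-drug mean, capped at 1.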

[2] = tested on: S. aureus Newman; assay: as above
Outline: as §1

[3] = tested on: S. pneumoniae D39V; assay: as above
Outline: as §1

[4] = tested on: S. aureus DSM 20231; assay: as above
Outline: as §1

[5] = tested on: B. subtilis 168; assay: fitness (endpoint OD595 vs no drug) (fraction); higher = more growth
Outline: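 Growth medium was TSB, LB Lennox or CY, and plates were kept at 37 °C. Inoculation was at OD595 0.01 in 384-well plates, at 30 µl per well or 55 µl for S. pneumoniae. OD595 was monitored every 30 min for 14 h and background-subtracted using the first reading. Fitness is the optical density on entering stationary phase divided by the robust mean of no-drug controls, with values capped at 1.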
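Wherever Bliss interaction score (quartile over a dose matrix) is given: first quartile when negative (synergy) and third quartile when positive (antagonism).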

CC[C@H]1OC(=O)[C@H](C)[C@@H](O[C@H]2C[C@@](C)(OC)[C@@H](O)[C@H](C)O2)[C@H](C)[C@@H](O[C@@H]2O[C@H](C)C[C@H](N(C)C)[C@H]2O)[C@](C)(O)C[C@@H](C)CN(C)[C@H](C)[C@@H](O)[C@]1(C)O [Azithromycin] + CCC(C)C1C(=O)NC(=C)C(=O)NC(C(=O)NC(CSCC(C(=O)N1)NC(=O)/C(=C/C)/NC(=O)C(C(C)CC)N)C(=O)NC2C(SCC(NC(=O)CNC(=O)C3CCCN3C2=O)C(=O)NC(CCCCN)C(=O)NC4C(SCC(NC(=O)CNC(=O)C(NC(=O)C(NC(=O)C(NC(=O)CNC4=O)C)CC(C)C)CCSC)C(=O)NC(CC(=O)N)C(=O)NC(CCSC)C(=O)NC(CCCCN)C(=O)NC5C(SCC6C(=O)NC(C(=O)NC(CSC(C(C(=O)N6)NC(=O)C(NC5=O)C)C)C(=O)NC(CO)C(=O)NC(C(C)CC)C(=O)NC(CC7=CN=CN7)C(=O)NC(C(C)C)C(=O)NC(=C)C(=O)NC(CCCCN)C(=O)O)CC8=CN=CN8)C)C)C)CC(C)C [Nisin]
main component drawn
Details | Bliss interaction score
[1] | 0.0397
[2] | -0.113
[3] | -0.0414
[4] | -0.195

fitness, [5], main component drawn
Details | partner 0.5 µg/mL | partner 1 µg/mL | partner 2 µg/mL
first compound 0.25 µg/mL | 0.904 | 0.837 | 0.724
first compound 0.5 µg/mL | 0.862 | 0.805 | 0.636

fitness, [5], one replicate, main component drawn
Details | partner 1.25 µg/mL | partner 1.6 µg/mL | partner 2.5 µg/mL | partner 3.2 µg/mL | partner 4 µg/mL | partner 5 µg/mL | partner 6.4 µg/mL | partner 8 µg/mL | partner 16 µg/mL
first compound 0.25 µg/mL | – | – | – | – | 0.0321 | – | – | 0.0145 | 0.0145
first compound 0.5 µg/mL | 0.889 | 0.611 | 0.0285 | 0.028 | 0.0372 | 0.0256 | 0.0317 | 0.0317 | 0.0189
first compound 1 µg/mL | 0.844 | 0.038 | 0.415 | 0.0169 | 0.0347 | 0.0235 | 0.0188 | 0.0359 | 0.0271
first compound 2 µg/mL | 0.358 | 0.023 | 0.0636 | 0.0193 | – | 0.0032 | 0.0113 | – | –

CC[C@H]1OC(=O)[C@H](C)[C@@H](O[C@H]2C[C@@](C)(OC)[C@@H](O)[C@H](C)O2)[C@H](C)[C@@H](O[C@@H]2O[C@H](C)C[C@H](N(C)C)[C@H]2O)[C@](C)(O)C[C@@H](C)CN(C)[C@H](C)[C@@H](O)[C@]1(C)O [Azithromycin] + CN(C)C(=O)C(CCN1CCC(O)(c2ccc(Cl)cc2)CC1)(c1ccccc1)c1ccccc1 [Loperamide]
Details | Bliss interaction score
[1] | 0.137
[2] | 0.101
[3] | 0.131
[4] | 0.344

Details | fitness
[5], first compound 1 µg/mL, partner 50 µg/mL | 0.041

CC[C@H]1OC(=O)[C@H](C)[C@@H](O[C@H]2C[C@@](C)(OC)[C@@H](O)[C@H](C)O2)[C@H](C)[C@@H](O[C@@H]2O[C@H](C)C[C@H](N(C)C)[C@H]2O)[C@](C)(O)C[C@@H](C)CN(C)[C@H](C)[C@@H](O)[C@]1(C)O [Azithromycin] + CO[C@@H]1[C@@H](OC(N)=O)[C@@H](O)[C@H](Oc2ccc3c(O)c(NC(=O)c4ccc(O)c(CC=C(C)C)c4)c(=O)oc3c2C)OC1(C)C [Novobiocin]
Details | Bliss interaction score
[1] | 0.0746
[2] | 0.157
[3] | -0.0647
[4] | 0.0496

fitness, [5]
Details | partner 0.0125 µg/mL | partner 0.025 µg/mL | partner 0.05 µg/mL | partner 0.1 µg/mL | partner 0.2 µg/mL
first compound 0.25 µg/mL | 0.897 | 0.888 | 0.894 | 0.954 | 0.931
first compound 0.5 µg/mL | 0.867 | 0.814 | 0.868 | 0.865 | 0.878
first compound 1 µg/mL | 0.642 | 0.63 | – | – | –

fitness, [5], one replicate
Details | first compound 0.5 µg/mL | first compound 1 µg/mL | first compound 2 µg/mL
partner 0.125 µg/mL | 0.772 | 0.765 | 0.347
partner 0.25 µg/mL | 0.781 | 0.597 | 0.167
partner 0.5 µg/mL | 0.507 | 0.473 | 0.0776
